The source of these data is patent publication US11464770B2, “Anticancer pharmaceutical composition” (NATIONAL CANCER CENTER, priority 2016, dated 2022).

Read-outs that look alike come from different tables or passages of the source. Bounds are passed on as bounds.

In assay [1] the test system is prostate cancer cell lines (e.g. DU145/TXR). Briefly: Cell based assay, cell viability (CellTiter-Glo), prostate cancer cell lines. To be noted: Homo sapiens, 72 hours treatment, final concentration 0 to 2 μM. Put shortly: (§1)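 Luminescent ATP assay quantified surviving cells after three days of treatment. Compound was applied at final concentrations of 0 to 2 μM, starting 24 h after cells were seeded.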
On the technique in general: In ATP-based viability assays light output follows the ATP content of the culture.

Assay [2] relates to lung cancer cell lines (e.g. NCI-H23, NCI-H1229). The experiment in a line: Cell based assay, cell viability (CellTiter-Glo), lung cancer cell lines. Conditions: Homo sapiens, 72 hours treatment, CellTiter-Glo. The essentials: as §1
Assay [3] relates to brain cancer cell lines. The experiment in a line: Cell based assay, cell viability (CellTiter-Glo), brain cancer cell lines. To be noted: Homo sapiens.
For assay [4], the system named is neuroblastoma cell lines. Briefly: Cell based assay, cell viability (CellTiter-Glo), neuroblastoma cell lines. To be noted: Homo sapiens; SH-SY5Y cell line. The essentials: as §1
Assay [5] relates to liver cancer cell lines. Briefly: Cell based assay, cell viability (CellTiter-Glo), liver cancer cell lines. To be noted: Homo sapiens, SK-HEP1; SK-HEP-1 cell line. Put shortly:
as §1

For assay [6], the system named is renal cancer cell lines. Briefly: Cell based assay, cell viability (CellTiter-Glo), renal cancer cell lines. To be noted: Homo sapiens; ACHN cells. Put shortly:
as §1

Setting [7] is: CWR22 cells, read-out: IC50, prostate cancer cell line CWR22.
Setting [8] is: DU-145, DU145/TXR cells, read-out: IC50, prostate cancer cell line DU145/TXR.
[9] abbreviates: DU-145, DU145 cells, read-out: IC50, prostate cancer cell line DU145.
Where [10] appears, read: LNcap cells, read-out: IC50, prostate cancer cell line LNcap.
The mark [11] stands for this setting: PC-3 cells, read-out: IC50, prostate cancer cell line PC-3.
[12] abbreviates: A549 cells, read-out: IC50, lung cancer cell line A549.
Setting [13] is: DMS 114 cells, read-out: IC50, lung cancer cell line DMS 114.
The mark [14] stands for this setting: NCI-H23 cells, read-out: IC50, lung cancer cell line NCI-H23.
Where [15] appears, read: NCI-H460 cells, read-out: IC50, lung cancer cell line NCI-H460.
[16] abbreviates: NCI-H522 cells, read-out: IC50, lung cancer cell line NCI-H522.
The mark [17] stands for this setting: NCI-H1299 cells, read-out: IC50, lung cancer cell line NCI-H1299.
The mark [18] stands for this setting: NCI-H1437 cells, read-out: IC50, lung cancer cell line NCI-H1437.
The mark [19] stands for this setting: U138-MG, U-138 MG cell line, read-out: IC50, Brain cancer cell line U-138 MG.
Setting [20] is: T98G cell line, read-out: IC50, Brain cancer cell line T98G.
The mark [21] stands for this setting: U-251 MG cell line, read-out: IC50, Brain cancer cell line U-251 MG.

On to `COc1cc(S(F)(F)(F)(F)F)ccc1C[S+]([O-])c1[nH]c2c(Br)ccc(Cl)c2c(=O)c1C(C)=O` (stereo not shown) [Compound 75, 3-acetyl-8-bromo-5-chloro-2-((2-methoxy-4-(pentafluoro--sulfanyl)benzyl)sulfinyl)quinolin-4(1H)-one], for which the IC50 was 1880 nM in assay [1] (setting [7]); 1030 nM in assay [1] (setting [8]); 1020 nM in assay [1] (setting [9]); greater than 2000 nM in assay [1] (setting [10]); 1440 nM in assay [1] (setting [11]); 1700 nM in assay [2] (setting [12]). Also, the IC50 is greater than 2000 nM in assay [2] (setting [13]); 1090 nM in assay [2] (MRC-5 cells, read-out: IC50); 1190 nM in assay [2] (setting [14]); 1730 nM in assay [2] (setting [15]); greater than 2000 nM in assay [2] (setting [16]); 1060 nM in assay [2] (setting [17]). Further, the IC50 in assay [2] (setting [18]) is greater than 10000 nM; in assay [3] (setting [19]), 1370 nM; in assay [3] (setting [20]), greater than 10000 nM; in assay [3] (setting [21]), 1090 nM; in assay [4] it was greater than 2000 nM; in assay [5], 1030 nM. In assay [6], this compound showed an IC50 greater than 2000 nM.

On to `CC(=O)c1c([S+]([O-])Cc2cc(F)cc(S(F)(F)(F)(F)F)c2)[nH]c2c(Br)ccc(Cl)c2c1=O` (stereo not shown) [Compound 76, 3-acetyl-8-bromo-5-chloro-2-((3-fluoro-5-(pentafluoro--sulfanyl)benzyl)sulfinyl)quinolin-4(1H)-one], for which the IC50 is greater than 2000 nM in assay [1] (setting [7]); 1170 nM in assay [1] (setting [8]); 1140 nM in assay [1] (setting [9]); greater than 2000 nM in assay [1] (setting [10]); 1700 nM in assay [1] (setting [11]); greater than 2000 nM in assay [2] (setting [12]). Besides, the IC50 is greater than 2000 nM in assay [2] (setting [13]); 1570 nM in assay [2] (MRC-5 cells, read-out: IC50); 1220 nM in assay [2] (setting [14]); greater than 2000 nM in assay [2] (setting [15]); greater than 2000 nM in assay [2] (setting [16]); 1670 nM in assay [2] (setting [17]). The IC50 in assay [2] (setting [18]) is greater than 10000 nM; in assay [3] (setting [19]) it was greater than 2000 nM; in assay [3] (setting [20]), greater than 10000 nM; in assay [3] (setting [21]), greater than 2000 nM; in assay [4], greater than 2000 nM; in assay [5], 1230 nM. For the same compound, the IC50 in assay [6] was greater than 2000 nM.

With `CC(=O)c1c([S+]([O-])Cc2ccc(I)cc2)[nH]c2c(Cl)ccc(Cl)c2c1=O` (stereo not shown) [Compound 83, 3-acetyl-5,8-dichloro-2-((4-iodobenzyl)sulfinyl)quinolin-4(1H)-one], the IC50 is 1940 nM in assay [1] (setting [7]); 1050 nM in assay [1] (setting [8]); 1340 nM in assay [1] (setting [9]); greater than 2000 nM in assay [1] (setting [10]); greater than 2000 nM in assay [1] (setting [11]); greater than 2000 nM in assay [2] (setting [12]). Moreover, the IC50 in assay [2] (setting [13]) was greater than 2000 nM; in assay [2] (MRC-5 cells, read-out: IC50), 1750 nM; in assay [2] (setting [14]), 1250 nM; in assay [2] (setting [15]), 1540 nM; in assay [2] (setting [16]) it was greater than 2000 nM; in assay [2] (setting [17]) it was 1450 nM. Moreover, the IC50 in assay [2] (setting [18]) was greater than 10000 nM; in assay [3] (setting [19]), greater than 2000 nM; in assay [3] (setting [20]), greater than 2000 nM; in assay [3] (setting [21]) it was 1350 nM; in assay [4], 1240 nM; in assay [5], 1510 nM. Besides, the IC50 in assay [6] was greater than 2000 nM.

Turning to `CC(=O)c1c([S+]([O-])Cc2cccnc2)[nH]c2c(Br)ccc(Cl)c2c1=O` (stereo not shown) [Compound 84, 3-acetyl-8-bromo-5-chloro-2-((pyridin-3-ylmethyl)sulfinyl)quinolin-4(1H)-one], the IC50 in assay [1] (setting [7]) is 1420 nM; in assay [1] (setting [8]), 1230 nM; in assay [1] (setting [9]), 1390 nM; in assay [1] (setting [10]), greater than 2000 nM; in assay [1] (setting [11]), greater than 2000 nM; in assay [2] (setting [12]) it was greater than 2000 nM. Moreover, the IC50 in assay [2] (setting [13]) is greater than 2000 nM; in assay [2] (MRC-5 cells, read-out: IC50) it was 1290 nM; in assay [2] (setting [14]), 860 nM; in assay [2] (setting [15]), 1480 nM; in assay [2] (setting [16]), 1350 nM; in assay [2] (setting [17]) it was 1050 nM. Besides, the IC50 in assay [2] (setting [18]) is greater than 10000 nM; in assay [3] (setting [19]) it was greater than 2000 nM; in assay [3] (setting [20]), greater than 10000 nM; in assay [3] (setting [21]), greater than 2000 nM; in assay [4] it was 600 nM; in assay [5], 1070 nM. This compound had an IC50 in assay [6] of 1380 nM.

Turning to `Cc1cc(C[S+]([O-])c2[nH]c3c(Cl)ccc(Cl)c3c(=O)c2C(=O)C(C)C)no1` (stereo not shown) [Compound 86, 5,8-dichloro-3-isobutyryl-2-(((5-methylisoxazol-3-yl)methyl)sulfinyl)quinolin-4(1H)-one], the IC50 in assay [1] (setting [7]) was 1260 nM; in assay [1] (setting [8]) it was 1110 nM; in assay [1] (setting [9]), 1310 nM; in assay [1] (setting [10]) it was greater than 2000 nM; in assay [1] (setting [11]), 1670 nM; in assay [2] (setting [12]), 1190 nM. Moreover, the IC50 is greater than 2000 nM in assay [2] (setting [13]); 1130 nM in assay [2] (MRC-5 cells, read-out: IC50); 710 nM in assay [2] (setting [14]); 1490 nM in assay [2] (setting [15]); 1090 nM in assay [2] (setting [16]); 1230 nM in assay [2] (setting [17]). Besides, the IC50 in assay [2] (setting [18]) was less than 2000 nM; in assay [3] (setting [19]), 1290 nM; in assay [3] (setting [20]), greater than 10000 nM; in assay [3] (setting [21]), 740 nM; in assay [4], 500 nM; in assay [5], 1000 nM. In addition, the IC50 in assay [6] was found to be 1330 nM.

As for `COC(=O)c1ccc(C[S+]([O-])c2[nH]c3c(Cl)ccc(Cl)c3c(=O)c2C(C)=O)o1` (stereo not shown) [Compound 89, methyl 5-(((3-acetyl-5,8-dichloro-4-oxo-1,4-dihydroquinolin-2-yl)sulfinyl)methyl)furan-2-carboxylate], the IC50 in assay [1] (setting [7]) is greater than 2000 nM; in assay [1] (setting [8]), 1960 nM; in assay [1] (setting [9]) it was greater than 2000 nM; in assay [1] (setting [10]), greater than 2000 nM; in assay [1] (setting [11]), greater than 2000 nM; in assay [2] (setting [12]) it was greater than 2000 nM. In addition, the IC50 in assay [2] (setting [13]) was greater than 2000 nM; in assay [2] (MRC-5 cells, read-out: IC50), greater than 2000 nM; in assay [2] (setting [14]) it was 1470 nM; in assay [2] (setting [15]), greater than 2000 nM; in assay [2] (setting [16]), greater than 2000 nM; in assay [2] (setting [17]) it was greater than 2000 nM. For the same compound, the IC50 in assay [2] (setting [18]) is greater than 10000 nM; in assay [3] (setting [19]) it was greater than 2000 nM; in assay [3] (setting [20]), greater than 10000 nM; in assay [3] (setting [21]), greater than 2000 nM; in assay [4], 1040 nM; in assay [5] it was 1590 nM. Moreover, the IC50 in assay [6] is greater than 2000 nM.

Consider `Cc1cc(C[S+]([O-])c2[nH]c3c(Br)ccc(Cl)c3c(=O)c2C(=O)C(C)C)no1` (stereo not shown) [Compound 95, 8-bromo-5-chloro-3-isobutyryl-2-(((5-methylisoxazol-3-yl)methyl)sulfinyl)quinolin-4(1H)-one], for which the IC50 in assay [1] (setting [7]) stood at 1080 nM; in assay [1] (setting [8]), 940 nM; in assay [1] (setting [9]), 840 nM; in assay [1] (setting [10]) it was 1980 nM; in assay [1] (setting [11]), 1700 nM; in assay [2] (setting [12]) it was 940 nM. Moreover, the IC50 in assay [2] (setting [13]) was greater than 2000 nM; in assay [2] (MRC-5 cells, read-out: IC50), 970 nM; in assay [2] (setting [14]) it was 720 nM; in assay [2] (setting [15]), 1400 nM; in assay [2] (setting [16]), 1010 nM; in assay [2] (setting [17]) it was 1060 nM. The IC50 in assay [2] (setting [18]) was less than 2000 nM; in assay [3] (setting [19]), 1010 nM; in assay [3] (setting [20]) it was greater than 10000 nM; in assay [3] (setting [21]) it was 610 nM; in assay [4], 480 nM; in assay [5], 940 nM. The IC50 in assay [6] worked out at 1190 nM.
